Consider one molecule from publication PMC8894198, “Biosynthetic Microcin J25 Exerts Strong Antibacterial, Anti-Inflammatory Activities, Low Cytotoxicity Without Increasing Drug-Resistance to Bacteria Target” (Frontiers in Immunology, 2022).

The test system of experiment [1] is E. coli K88. Nature of the experiment: MIC variability (cross-resistance) after 5 days at sub-MIC. In kind it is cell-based. The following applies: bacterial cells treated with MccJ25 (0.25 × MIC) for 5 days. As to the method: A 1:100 dilution of the bacteria was performed daily in the above MHB. Aliquots of the culture medium were used daily for 5 days thereafter to determine the MICs of ampicillin, tetracycline, aureomycin, and kanamycin. This study was performed based on our previous study ([29]).

Experiment [2] concerns E. coli K88. It is filed as cell-based. The following applies: sub-MIC levels, 25-d passage period; six biological replicates. As to the method: To quantify the production status of the bacteria, the bacterial density was measured after incubating for 24 h. Cultures with the second highest concentration allowed to grow (OD600 ≥ 2) were diluted 1:100 with MccJ25 MHB at different concentrations than those described above. Cultures that grew above the indicated MIC levels were plated on LB agar plates, and their MIC levels were determined by the broth macrodilution method.

Another experiment deals with E. coli K88 (ETEC K88). Nature of the experiment: Killing curves (bactericidal activity at different growth phases). In kind it is cell-based. As to the method:
Figure 1 Bactericidal activity assay of MccJ25 against E coli K88. Different concentrations of E coli K88 were cultured in LB containing different levels of MccJ25. E coli K88 cells (5 × 10^5 CFU/mL) were incubated and grown to different stages, including early-log (A), late-log (B) and stationary (C) phases. Additionally, bacteria, 5 × 10^8 CFU/mL, were cultured and grown to early-log (D), late-log (E) and stationary (F) phases. Data are means ± standard error of mean from 6 biological replicates.
A purified single colony of E. coli K88 was inoculated into 5 mL of LB. Then, culture was incubated at 37◦C with shaking at 200 rpm overnight. The next day, the culture was diluted 1:100 in fresh LB and incubated at 37◦C with shaking at 200 rpm again. To test antimicrobial activity, the bacteria were grown until they reached log phase. […] The cultures were serially diluted with sterilized saline water and plated on LB agar at different hours. The plates were incubated at 37◦C overnight to count colony. Colonies were counted to determine CFU/mL. The experiment was conducted with two replicates in three independent trials. A Live/Dead BacLight Bacterial Viability Kit 7 (Molecular Probes, Inc., Eugene) was used to test bacterial viability. […] E. coli K88 cultures were incubated at 37◦C for 2 h and then incubated in the dark at ambient temperature with SYTO 9 and propidium iodide for 15 min. Bacteria were observed using a fluorescence microscope (EVOS XL Cell Imaging System).

The subject of experiment [3] is E. coli K88 on IPEC-1 cells. Nature of the experiment: Protection against E. coli K88 adhesion and colonization of IPEC-1 cells. In kind it is cell-based. The note with it: 1, 2, 4, 8 × MIC for 3 h, then E. coli K88 for 2 h; plate counts; 6 biological replicates. As for the experimental part: Capacity of against E. coli K88 adhesion and colonization of IPEC-1 cells was evaluated. IPEC-1 cells were cultured with or without MccJ25 for 3 h in the absence or presence of E. coli K88 for 2 h. The E. coli K88 adhesion and colonization in the IPEC-1 cells was determined. E. coli K88 (mean CFU/ml ± SEMs) were determined by plate counts, and determined from three individual experiments.
Figure S1. MccJ25 enhances intestinal epithelial cell to against E. coli K88 infection. […] IPEC-1 cells were cultured in the presence or absence of 1, 2, 4, 8 × MIC of MccJ25 for 3 h, then cells were treated with E. coli K88 for 2 h. The numbers of E. coli K88 were counted. E. coli K88 (mean CFU/ml ± SEMs) were determined by plate counts from 6 biological replicates. **P ≤ 0.01, ***P ≤ 0.001.

Experiment [4] deals with E. coli K88. As for the experimental part:
The resistance of MccJ25 to pepsin, trypsin and chymotrypsin was evaluated based on previous studies ([26]), with minor modifications. E. coli K88 cells were prepared (approximately 1 × 10^7 CFU/mL), and 1 mL of the bacterial suspension and MccJ25 were transferred into 9 mL of medium. For the control, MccJ25 was not added. LB agar inoculated with E. coli K88 cells (~10^5 viable cells/mL) was poured onto a plate containing an Oxford cup to form individual wells. Then, 2 and 4 h MccJ25 (1 × MIC) previously subjected to different treatments were added to the wells. The agar overlay was incubated overnight at 37°C, and the diameter of the growth inhibition zone was measured.
The simulated gastric fluid (SGF) and simulated intestinal fluid (SIF) were mainly based on the relevant contents of the Chinese Pharmacopoeia as described previously ([26]). SGF was configurated with 10 mg/mL pepsin, 0.03 M NaCl was used to blend the pH to 1.5, while SIF was configured with 10 mg/mL trypsin, 0.05 M KH2PO4 was used to blended pH as 7. SGF and SIF were then measured separately, and the antimicrobial activity of MccJ25 in serum was determined. E. coli K88 cells were grown in MHB (Difco Laboratories, Detroit, MI, USA). In short, 1 mL of the bacterial suspension and MccJ25 were transferred into 9 mL of medium. The control group was as follows: no MccJ25 was added to it. E. coli K88 cells with a live cell count maintained at approximately 10^5 cells per milliliter were inoculated on LB agar, which was then poured into plates equipped with Oxford cups, thus forming wells. Then, MccJ25 (1 × MIC) previously treated with SGF, SIF and serum for 2, 4, and 6 h was added to these wells. One of the agar substances covering the wells needs to be incubated overnight at 37°C, and finally, the size of its growth inhibition area, i.e., the diameter, needs to be determined.

Where a SMILES comes first, the peptide text is derived from it. Bridges are numbered along the chain shown (N, C = ends).

In the case of `CC[C@H](C)[C@H](NC(=O)CNC(=O)[C@@H](NC(=O)[C@H](Cc1ccccc1)NC(=O)[C@H](Cc1ccc(O)cc1)NC(=O)[C@@H]1CCC(=O)NCC(=O)NCC(=O)N[C@@H](C)C(=O)NCC(=O)N[C@@H](Cc2c[nH]cn2)C(=O)N[C@@H](C(C)C)C(=O)N2CCC[C@H]2C(=O)N1)C(C)C)C(=O)NCC(=O)N[C@H](C(=O)N1CCC[C@H]1C(=O)N[C@H](C(=O)N[C@@H](CO)C(=O)N[C@@H](Cc1ccccc1)C(=O)N[C@@H](Cc1ccc(O)cc1)C(=O)NCC(=O)O)[C@@H](C)CC)[C@@H](C)O` [MccJ25, microcin J25] (GGAGHVPEYFVGIGTPISFYG-OH; lactam N-8 (inferred); C-terminus assumed), the “change in the MICs of ciprofloxacin, ampicillin, tetracycline and kanamycin” value in the experiment on E. coli K88 [1] was “no changes were observed”. Further, the “resistant mutants during serial passage” value in the experiment with E. coli K88 [2] is listed as “No resistant mutants were detected”. Also, the “time in which all inoculants were killed” value in the experiment on E. coli K88 (ETEC K88) (at the indicated MICs, stationary phase) was at most 6 h. In addition, in the experiment with E. coli K88 (ETEC K88) (inoculum 5 × 10^5 CFU/mL, 2 × MIC, each growth period (early log, late log, stationary), LB, 37°C), the “time in which all inoculums were killed” value is on record as at most 4 h. For the same molecule, the “reduction of bacterial count” value in the experiment on E. coli K88 (ETEC K88) (inoculum 5 × 10^5 CFU/mL, 4 × MIC, after 2 h incubation) was 5 log; with E. coli K88 (ETEC K88) (inoculum 5 × 10^5 CFU/mL, at the indicated MICs, at 2 h, all phases) it was “approximately 4 log”; in the experiment on E. coli K88 (ETEC K88) (inoculum 5 × 10^8 CFU/mL at log phase, 4 × MIC, 12 h), 8 log; with E. coli K88 (ETEC K88) (inoculum 5 × 10^8 CFU/mL, 1 × MIC, within 7 h), 6 log. In addition, in experiment [3], the “E. coli K88 adhesion and colonization” value was “significantly protects”. In addition, the “growth inhibition zone after heat treatment” value in the experiment with E. coli K88 [4] (MccJ25 1 × MIC pre-treated at 121°C for 20 minutes, Oxford cup, LB agar, overnight 37°C, n = 6) is listed as “greater than 22 mm”. The “growth inhibition zone after pH treatment” value in the experiment on E. coli K88 [4] (MccJ25 1 × MIC pre-treated at pH 2.0 to 9.0 for 2 h, Oxford cup, LB agar, overnight 37°C, n = 6) was “greater than 22 mm”. In the experiment with E. coli K88 [4] (MccJ25 1 × MIC pre-treated with SGF, SIF and serum for 2, 4 and 6 h, inhibition zone), the “antimicrobial activity after SIF, SGF or serum treatment” value is recorded as “essentially the same as that of MccJ25 subjected to a single treatment”. Moreover, the “antimicrobial activity after protease challenge” value in the experiment on E. coli K88 [4] (MccJ25 1 × MIC pre-treated with pepsin, trypsin or chymotrypsin for 2 and 4 h, inhibition zone) is recorded as “retained”.
